Experimental findings from patent US20230143612A1 (Arbutus Biopharma Corporation, priority 2020, published 2023) are described below.

Structures are written as SMILES. pIC50: −log10 of the molar value.

PD-L1 His protein / PD-1 Fc protein, sequence (Q9NZQ7 19-238 limits assumed): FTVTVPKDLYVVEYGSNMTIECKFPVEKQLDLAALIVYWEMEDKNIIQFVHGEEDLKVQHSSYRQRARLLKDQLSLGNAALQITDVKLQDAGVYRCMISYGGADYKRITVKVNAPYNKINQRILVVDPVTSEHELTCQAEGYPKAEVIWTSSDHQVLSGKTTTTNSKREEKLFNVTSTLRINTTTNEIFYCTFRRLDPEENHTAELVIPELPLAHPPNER

The target in this experiment is PD-L1 His protein / PD-1 Fc protein (Homo sapiens, UniProt Q9NZQ7). In words: HTRF Assay (PD-1/PD-L1 interaction). It is filed as binding. Conditions: PD-L1 His 6 nM, PD-1 Fc 6 nM. The protocol:
PD-L1 His protein was prepared and added at the final concentration of 6 nM in the White opaque 384 well plate (Corning cat #3824BC). PD-L1 small molecule inhibitors were diluted by 3-fold starting from 20 μM and a final concentration of 0.001 μM and added to the well. PD-1 Fc protein was added at the final concentration of 6 nM. PD-L1 His protein, PD-L1 small molecule inhibitors, and PD1 Fc proteins were added to the well in this order, with each 5 μl volume, and were incubated for 15 minutes at room temperature. PAb anti-Human IgG-XL665 (Cisbio, cat #61HFCXLA) and Mab anti-6HIS Tb cryptate Gold (Cisbio, cat #61HI2TLA) were mixed at 6.7 nM and 0.35 nM respectively, and total 5 μl volume of mixture was added to the well and incubated at room temperature for 1 hour. The plate was read using PerkinElmer Envision plate reader and data was analyzed by Prism 6 software.
What is called pIC50 is −log10 of the IC50, conventionally taken in molar units. Low readings indicate a high IC50, high ones a low IC50. On to `COc1nc(-c2cccc(-c3cccc(-c4ccn5c(=O)c(CN6C[C@H](O)C[C@@H]6C(=O)O)cnc5c4)c3Cl)c2Cl)ccc1CNC[C@@H]1CCC(=O)N1` [Example 134, (2R,4R)-1-((8-(2,2′-Dichloro-3′-(6-methoxy-5-(((((S)-5-oxopyrrolidin-2-yl)methyl)amino)methyl)pyridin-2-yl)-[1,1′-biphenyl]-3-yl)-4-oxo-4H-pyrido[1,2-a]pyrimidin-3-yl)methyl)-4-hydroxypyrrolidine-2-carboxylic acid], for which the pIC50 is 8.96.
The molecule `COC(=O)C12CCC(CC1)N(Cc1ccc(-c3cccc(-c4cccc(-c5ccn6c(=O)c(CNC[C@@H]7CCC(=O)N7)cnc6c5)c4Cl)c3Cl)nc1OC)C2` [Example 121, Methyl (S)-2-((6-(2,2′-dichloro-3′-(4-oxo-3-((((5-oxopyrrolidin-2-yl)methyl)amino)methyl)-4H-pyrido[1,2-a]pyrimidin-8-yl)-[1,1′-biphenyl]-3-yl)-2-methoxypyridin-3-yl)methyl)-2-azabicyclo[2.2.2]octane-4-carboxylate] had a pIC50 of 9.00.
The value for `COc1nc(-c2cccc(-c3cccc(-c4ccn5c(=O)c(CNC6(CC(=O)O)CC6)cnc5c4)c3Cl)c2Cl)ccc1CNC[C@@H]1CCC(=O)N1` [Example 139, (S)-2-(1-(((8-(2,2′-Dichloro-3′-(6-methoxy-5-((((5-oxopyrrolidin-2-yl)methyl)amino)methyl)-pyridin-2-yl)-[1,1′-biphenyl]-3-yl)-4-oxo-4H-pyrido[1,2-a]pyrimidin-3-yl)methyl)amino)-cyclopropyl)acetic acid] was 9.40; that for `Cc1c(COc2cc(OCc3cncc(C#N)c3)c(CNCCO)cc2Cl)cccc1-c1cccc(-n2cnc3cc(CNCCO)ccc3c2=O)c1C` [Example 6, 5-((4-Chloro-2-(((2-hydroxyethyl)amino)methyl)-5-((3′-(7-(((2-hydroxyethyl)amino)methyl)-4-oxoquinazolin-3(4H)-yl)-2,2′-dimethyl-[1,1′-biphenyl]-3-yl)methoxy)phenoxy)methyl)nicotinonitrile] was 7.36; that for `COc1nc(-c2cccc(-c3cccc(-c4ccn5c(=O)c(CN6CC7(C(=O)O)CCC6CC7)cnc5c4)c3Cl)c2Cl)ccc1CNC[C@@H]1CCC(=O)N1` [Example 127, (S)-2-((8-(2,2′-Dichloro-3′-(6-methoxy-5-((((5-oxopyrrolidin-2-yl)methyl)amino)methyl)pyridin-2-yl)-[1,1′-biphenyl]-3-yl)-4-oxo-4H-pyrido[1,2-a]pyrimidin-3-yl)methyl)-2-azabicyclo[2.2.2]octane-4-carboxylic acid] was 9.52.
Consider `COc1nc(-c2cccc(-c3cccc(-c4ccn5c(=O)c(CNCCN6CCCC6=O)cnc5c4)c3Cl)c2Cl)ccc1CNCCN1CCCC1=O` [Example 321, 8-[2-Chloro-3-[2-chloro-3-[6-methoxy-5-[[2-(2-oxopyrrolidin-1-yl)ethylamino]methyl]-2-pyridyl]phenyl]phenyl]-3-[[2-(2-oxopyrrolidin-1-yl)ethylamino]methyl]pyrido[1,2-a]pyrimidin-4-one], for which the pIC50 is 9.70.
As for `COc1nc(-c2cccc(-c3cccc(-c4ccc5nc(CNC[C@@H]6CCC(=O)N6)ncc5c4)c3Cl)c2Cl)ccc1CNC[C@@H]1CCC(=O)N1` [Example 422, (S)-5-((((6-(2,2′-Dichloro-3′-(2-(((((S)-5-oxopyrrolidin-2-yl)methyl)amino)methyl)quinazolin-6-yl)-[1,1′-biphenyl]-3-yl)-2-methoxypyridin-3-yl)methyl)amino)methyl)pyrrolidin-2-one], the figure is 8.39; as for `COC(=O)[C@H]1CCN(Cc2c(C)nc3cc(-c4cccc(-c5cccc(-c6ccc(CNC[C@@H]7CCC(=O)N7)c(OC)n6)c5Cl)c4Cl)ccn3c2=O)C1` [Example 265, (S)-Methyl 1-((8-(2,2′-dichloro-3′-(6-methoxy-5-(((((S)-5-oxopyrrolidin-2-yl)methyl)amino)methyl)pyridin-2-yl)-[1,1′-biphenyl]-3-yl)-2-methyl-4-oxo-4H-pyrido[1,2-a]pyrimidin-3-yl)methyl)pyrrolidine-3-carboxylate], 9.15.
As for `COc1nc(-c2cccc(-c3cccc(-c4ccn5c(=O)c(CN(C)[C@H]6C[C@](C)(O)C6)cnc5c4)c3Cl)c2Cl)ccc1CNC[C@@H]1CCC(=O)N1` [Example 318, 8-(2,2′-Dichloro-3′-(6-methoxy-5-(((((S)-5-oxopyrrolidin-2-yl)methyl)-amino)-methyl)-pyridin-2-yl)-[1,1′-biphenyl]-3-yl)-3-((((1r,3r)-3-hydroxy-3-methylcyclobutyl)(methyl)amino)methyl)-4H-pyrido[1,2-a]pyrimidin-4-one], the figure is 10.00; as for `Cc1c(-c2ccn3c(=O)c(CNC4CNC(=O)C4)cnc3c2)cccc1-c1cccc(-c2ccc(CNC[C@@H]3CCC(=O)N3)c(F)n2)c1Cl` (stereo partly drawn) [Example 62, 8-(2′-Chloro-3′-(6-fluoro-5-(((((S)-5-oxopyrrolidin-2-yl)methyl)amino)methyl)pyridin-2-yl)-2-methyl-[1,1′-biphenyl]-3-yl)-3-(((5-oxopyrrolidin-3-yl)amino)methyl)-4H-pyrido[1,2-a]pyrimidin-4-one], 7.72.
The value for `Cc1c(COc2cc(OCc3cncc(C#N)c3)c(CNCCO)cc2Cl)cccc1-c1cccc(-c2ccn3c(=O)c(CNCCO)cnc3c2)c1C` [Example 3, 5-((4-Chloro-2-(((2-hydroxyethyl)amino)methyl)-5-((3′-(3-(((2-hydroxyethyl)amino)methyl)-4-oxo-4H-pyrido[1,2-a]pyrimidin-8-yl)-2,2′-dimethyl-[1,1′-biphenyl]-3-yl)methoxy)phenoxy)methyl)nicotinonitrile] was 8.92.
Molecule `COc1nc(-c2cccc(-c3cc(Cl)cc(-c4ccn5c(=O)c(CNC[C@@H]6CCC(=O)N6)cnc5c4)c3Cl)c2Cl)ccc1CNC[C@@H]1CCC(=O)N1` [Example 141, 3-(((((S)-5-Oxopyrrolidin-2-yl)methyl)amino)methyl)-8-(2,2′,5-trichloro-3′-(6-methoxy-5-(((((S)-5-oxopyrrolidin-2-yl)methyl)amino)methyl)pyridin-2-yl)-[1,1′-biphenyl]-3-yl)-4H-pyrido[1,2-a]pyrimidin-4-one] showed a pIC50 of 8.24.
In the case of `COc1nc(-c2cccc(-c3cccc(-c4ccn5c(=O)c(CNC[C@@H]6CCC(=O)N6)c(C)nc5c4)c3Cl)c2Cl)cc(F)c1CNC[C@@H]1CCC(=O)N1` [Example 404, 8-(2,2′-Dichloro-3′-(4-fluoro-6-methoxy-5-(((((S)-5-oxopyrrolidin-2-yl)methyl)amino)methyl)pyridin-2-yl)-[1,1′-biphenyl]-3-yl)-2-methyl-3-(((((S)-5-oxopyrrolidin-2-yl)methyl)amino)methyl)-4H-pyrido[1,2-a]pyrimidin-4-one], the pIC50 is 10.00.
Turning to `COc1nc(-c2cccc(-c3cccc(-c4ccn5c(=O)c(CNCCN6CCCC6=O)cnc5c4)c3Cl)c2Cl)ccc1CNC[C@@H]1CCC(=O)N1` [Example 219, 8-[2-Chloro-3-[2-chloro-3-[6-methoxy-5-[[[(2S)-5-oxopyrrolidin-2-yl]methylamino]methyl]-2-pyridyl]phenyl]phenyl]-3-[[2-(2-oxopyrrolidin-1-yl)ethylamino]methyl]pyrido[1,2-a]pyrimidin-4-one], the pIC50 is 9.15.
As for `COc1nc(-c2cccc(-c3cccc(-c4ccn5c(=O)c(CN6CCC(CO)(CO)C6)cnc5c4)c3Cl)c2Cl)ccc1CNC[C@@H]1CCC(=O)N1` [Example 328, (S)-3-((3,3-Bis(hydroxymethyl)pyrrolidin-1-yl)methyl)-8-(2,2′-dichloro-3′-(6-methoxy-5-((((5-oxopyrrolidin-2-yl)methyl)amino)methyl)pyridin-2-yl)-[1,1′-biphenyl]-3-yl)-4H-pyrido[1,2-a]pyrimidin-4-one], the figure is 10.00; as for `COc1cc(-c2ccc(CNC[C@@H]3CCC(=O)N3)c(OC)n2)c(Cl)c(-c2cccc(-c3ccn4c(=O)c(CNC[C@@H]5CCC(=O)N5)cnc4c3)c2Cl)c1` [Example 146, 8-(2,2′-Dichloro-5′-methoxy-3′-(6-methoxy-5-(((((S)-5-oxopyrrolidin-2-yl)methyl)amino)methyl)pyridin-2-yl)-[1,1′-biphenyl]-3-yl)-3-(((((S)-5-oxopyrrolidin-2-yl)methyl)amino)methyl)-4H-pyrido[1,2-a]pyrimidin-4-one], 6.62.
The value for `COc1nc(-c2cccc(-c3cccc(-c4cc(C)n5c(=O)c(CN[C@H]6C[C@](C)(O)C6)cnc5c4)c3Cl)c2Cl)ccc1CNC[C@@H]1CCC(=O)N1` [Example 211] was 7.68; that for `CNCCCOc1cc(C)c2nc(-c3cccc(-c4cccc(-c5cc(=O)n6cc(OCCCNC)cc(C)c6n5)c4Cl)c3Cl)cc(=O)n2c1` [Example 35, 2,2′-(2,2′-Dichloro-[1,1′-biphenyl]-3,3′-diyl)bis(9-methyl-7-(3-(methylamino)propoxy)-4H-pyrido[1,2-a]pyrimidin-4-one)] was 6.46.
The value for `COc1nc(-c2cccc(-c3cccc(-c4ccc5c(CNC[C@H](C)O)cn(C)c5n4)c3Cl)c2Cl)ccc1CNC[C@@H]1CCC(=O)N1` [Example 411, (5S)-5-[[[6-[2-Chloro-3-[2-chloro-3-[3-[[[(2S)-2-hydroxypropyl]amino]methyl]-1-methyl-pyrrolo[2,3-b]pyridin-6-yl]phenyl]phenyl]-2-methoxy-3-pyridyl]methylamino]methyl]pyrrolidin-2-one] was 8.80.
